# Key:
# Assay type in all cases: cell-based, murine
# preadipocytes (3T3-L1) = experiment: Proliferation (CyQUANT NF) of preadipocytes; settings: 72 hr
# [1] = tested on: differentiated 3T3-L1 adipocytes; experiment: NAD+/NADH ratio (NAD+/NADH-Glo); settings: 1 μM
# Protocol: NAD+/NADH Ratio: 3T3-L1 cells were seeded, differentiated and treated with or without AZD3965 (1 μM) for 15 min, 30 min, 1 hr, 4 hr, 8 hr or 24 hr in clear 96 well plates (Corning®). Following incubation with the compound, the NAD+/NADH-Glo™ (Promega®) kit was used to measure both the NAD+ and NADH concentrations within each sample according to the manufacturer's protocol. Briefly, samples were lysed and split into 2 separate white 96 well plates (Corning®). One plate was treated with a strong acid (0.4N HCl) to eliminate NADH in the sample while the other plate was treated with a strong base (0.2N NaOH) to eliminate NAD+, and both plates were incubated at 60° C. for 15 minutes. Samples were then neutralized and subjected to the NAD+/NADH-Glo™ assay. Within this assay, in the presence of NAD+ or NADH, an enzyme ‘Reductase’ reduces a pro-luciferin reductase substrate to form luciferin which emits a luminescent signal directly proportional to the quantity of NAD+ or NADH within the sample. Luminescence was read on a spectrophotometer (FlexStation 3; Molecular Devices). To calculate the NAD+/NADH ratio for each sample, luminescence from acid-treated samples, (reflecting NAD+level), was divided by the luminescence signal from the corresponding base-treated samples (reflecting NADH levels).
# [2] = tested on: differentiated 3T3-L1 adipocytes; experiment: Adipokine antibody array on conditioned media; settings: 72 hr treatment, media conditioned 24 hr
# Protocol: Adipokine Antibody Array: 3T3-L1 cells were differentiated and treated with or without AZD3965 for 72 hr. After this incubation, media was replenished, and adipocytes were cultured for an additional 24 hr to allow for adipokine secretion and media conditioning. Media was collected and analyzed for adipokine secretion with the Proteome Profiler Mouse Adipokine Array Kit (R&D Systems) according to the manufacturer's instructions. Chemiluminescence was detected with the LI-COR Odyssey® XF Imaging System with a 2 minute exposure time. Positive signals were quantified using Image Studio™ (LI-COR Biosciences) to quantify signal intensity. Data presented represent signal intensity normalized by the signal intensity of reference antibodies within the array.
# [3] = tested on: differentiated 3T3-L1 cells; experiment: Lipolysis (intracellular glycerol, Glycerol-Glo); settings: 1 μM, all time points measured (24, 48, 72 hr)
# Protocol: Lipolysis (Intracellular Glycerol): 3T3-L1 cells were seeded, differentiated and treated with or without AZD3965 (1 μM) for up to 72 hr in clear 96 well plates (Corning®). After media removal and washing cells with PBS, the Glycerol-Glo™ (Promega®) assay kit was used to assess changes in lipolysis through the quantification of intracellular glycerol according to the manufacturer's instructions. A luminescent signal is produced that is proportional to the amount of glycerol within the sample Luminescence was read on a spectrophotometer (FlexStation 3; Molecular Devices).
# [4] = tested on: differentiated 3T3-L1 adipocytes; experiment: Ki67 expression (confocal microscopy and quantification); settings: 1 μM, 24 hr, vs untreated adipocytes
# Protocol: Confocal Microscopy: Cells were seeded and differentiated on 8 chamber μ-Slides (Ibidi®). Differentiated cells treated with vehicle (DMSO) or 1 μM AZD3965 for 24 hr were fixed in 4% PFA for 10 min at room temperature, permeabilized with 0.1% Triton™ X-100 in PBS and blocked with 3% BSA in PBS for an hr. Cells were subsequently incubated with Ki67 antibody (NBP2-22112, Novus Biologicals) at a 1:500 dilution in PBS 3% BSA overnight at 4° C. Cells were washed with PBS and incubated with goat anti-rabbit Alexa Fluor 647 secondary antibody (Invitrogen) at 1:2000 dilution in PBS 3% BSA for 1 hr. Lipid droplets were stained with BODIPY® (Invitrogen) for 20 min at room temperature according to the manufacturer's recommendations. Nuclei were stained for 20 min at room temperature with 4,6-diamidino-2-phenylindole (DAPI) (Sigma-Aldrich) in PBS 3% BSA, diluted at 1:5000 from a 1 mg/ml stock. Images were acquired on the Leica TCS SP8 laser scanning confocal microscope Leica Microsystems) at a magnification of 630× with 3× zoom. Ki67 Expression Quantification: Slides were prepared as outlined in ‘Confocal Microscopy’, After staining, Ki67 expression was imaged and analyzed on the Cytation 5 Cell Imaging Multi-Mode reader (BioTek Instruments) through the measure of fluorescence intensity and deep red fluorescent (Alexa647) positive pixels. […]
# 3T3-L1-shScramble cells = experiment: Glucose uptake (Glucose Uptake-Glo) in shScramble control cells; settings: 1 μM for 72 hr, 175 nM insulin
# Protocol: Cell Line Development: Lenti plasmid vectors containing shRNA targeting MCT1 or a shScramble sequence were purchased from Genocopia. Lentiviral particles were produced using HEK293T cells and a third-generation packaging system, MISSION Lentiviral Packaging Mix, as per manufacturer's (Sigma-Aldrich) recommendations. To generate shMCT1 cells, 3T3-L1 cells were seeded and transduced with optimized titers of freshly harvested lentivirus. 12 hr after transduction, medium was changed, and cells were allowed to recover for 24 h before being placed under antibiotic selection (2 μg/mL puromycin [Clontech]) for 3-6 days. Cells surviving antibiotic selection were harvested for both reverse transcription quantitative chain polymerase reaction (RT-qPCR) and immunoblotting analyses.
# Glucose Uptake: 3T3-L1 cells were seeded and differentiated in clear bottom 96-well plates (Corning®). After differentiation, cells were treated with or without […] AZD3965 for 24 hr, 48 hr or 72 hr as illustrated in FIG. 7 (schematic outline of experimental procedure). The cells were incubated in serum free media the night before performing the assay. […] Glucose Uptake was measured using the Glucose Uptake-Glo™ Assay (Promega®) according to the manufacturer's protocol. The data generated were normalized by dividing the relative luminescence units (RLU) measured in insulin stimulated wells by vehicle treated controls. […]
smiles,measurement,setting,value
"Cc1[nH]nc(C(F)(F)F)c1Cc1sc2c(c1C(=O)N1C[C@](C)(O)CO1)c(=O)n(C)c(=O)n2C(C)C [AZD3965, 5-[[(4S)-4-hydroxy-4-methyl-2-isoxazolidinyl]carbonyl]-3-methyl-1-(1-methylethyl)-6-[[5-methyl-3-(trifluoromethyl)-1H-pyrazol-4-yl]methyl]-thieno[2,3-d]pyrimidine-2,4 (1H, 3H)-dione]",proliferation,preadipocytes (3T3-L1),no effect on proliferation
same,NAD+/NADH ratio,[1]; all time points measured (15 min-24 hr),significant change
same,NAD+/NADH ratio,[1]; first 8 hr of treatment,significant decrease
same,adipokine levels in conditioned media,[2],no significant differences
same,intracellular glycerol levels (lipolysis),[3],significantly increased
same,expression of Ki67,[4],significant increase
same,insulin-stimulated glucose uptake,3T3-L1-shScramble cells,augmented
